Laboratory results taken from patent US20250051732A1, “KIDNEY-ON-A-CHIP COMPRISING RENAL TUBULE CULTURE PART AND INTERSTITIUM CULTURE PART” (Seoul National University Hospital, priority 2021, published 2025).

Assays:
Type in all cases: cell-based, human
[1] = test system: normal kidney-on-a-chip (renal tubular epithelial cells (HK-2 cells), renal fibroblasts derived from normal kidney tissue, GFP-HUVEC); assay: Normal kidney-on-a-chip, TGF-β stimulation: CCK8 and α-SMA immunofluorescence and blood vessels; conditions: TGF-β 5 ng/ml, 24 hours
Procedure: (§1) Specifically, vascular endothelial cells (GFP-HUVEC) at 2000×10^4/ml and fibrin gel at 10 mg/ml were seeded in the vascular endothelial cell region (yellow region in FIG. 12B, Gel A) of the interstitium culture part of the kidney-on-a-chip manufactured above as 1 in FIG. 12C and cultured at room temperature for 2 to 3 minutes. Next, primary human renal fibroblasts derived from a patient with renal failure at 400×10^4/ml and fibrin gel at 10 mg/ml were seeded in the renal fibroblast region (red region in FIG. 12B, Gel C) of the interstitium culture part of the kidney-on-a-chip manufactured above as 2 in FIG. 12C and cultured at room temperature for 2 to 3 minutes. Afterwards, 5 to 10 μl of the human renal tubular epithelial cell (Human Kidney-2 cell, HK-2 cell) suspension at 300×10^4/ml was seeded in the renal tubule culture part (blue region in FIG. 12B, Gel B) of the kidney-on-a-chip as 3 in FIG. 12C, tilted 90° in the desired direction (upward in this experiment), and cultured at 37° C. for 30 minutes. After culture, each region of the kidney-on-a-chip was filled with 150 μl of the same medium as that in A. of Example 2-2. The renal tubular epithelial cells, vascular endothelial cells, renal fibroblasts and the like were seeded, cultured for 3 days, then treated with TGF-β at 5 ng/ml and TGF-β at 5 ng/ml and a TGF-β inhibitor at 10 μM, respectively, and reacted for 24 hours.
The following immunofluorescence staining was performed to examine whether the kidney-on-a-chip manufactured above normally mimics a living body. Cells in each of the renal tubule culture part and interstitium culture part of the kidney-on-a-chip were fixed with 4% paraformaldehyde fixative (Biosesang, #P2031) at room temperature for 20 minutes, washed with 1×PBS, then treated with 0.2% Triton-X (Sigma, #T9284), and cultured at room temperature for 20 minutes. The cells were then treated with 3% BSA, reacted at room temperature for 40 minutes, and then washed with 1×PBS. […]

[2] = test system: renal tubular epithelial cells (HK-2 cells) in renal fibrosis-on-a-chip; assay: Renal fibrosis-on-a-chip: CCK8 and α-SMA immunofluorescence in renal tubule culture part; conditions: 24 hours
Procedure: as §1
The following immunofluorescence staining was performed to examine whether the kidney-on-a-chip manufactured above normally mimics a living body. Cells in each of the renal tubule culture part and interstitium culture part of the kidney-on-a-chip were fixed with 4% paraformaldehyde fixative (Biosesang, #P2031) at room temperature for 20 minutes, washed with 1×PBS, then treated with 0.2% Triton-X (Sigma, #T9284), and cultured at room temperature for 20 minutes. The cells were then treated with 3% BSA, reacted at room temperature for 40 minutes, and then washed with 1×PBS. Next, the cells were treated with primary antibodies (α-SMA antibody (diluted at 1:100) for renal fibroblasts and cytokeratin 8 (CCK8) antibody (diluted at 1:200) for renal tubular epithelial cells) diluted with 1% BSA, reacted at room temperature for 2 days, and washed again with 1×PBS. After washing, the cells were treated with secondary antibodies against each marker diluted with 1% BSA at 1:100 and the antibody Hoechst diluted with 1% BSA at 1:250, reacted at room temperature for 3 hours, washed again with 1×PBS, and then photographed using a confocal microscope, and the results are illustrated in FIG. 12D. […]

[3] = test system: vascular endothelial cells (GFP-HUVEC) in interstitium culture part; assay: Renal fibrosis-on-a-chip: degree of angiogenesis (length and diameter of blood vessels, ImageJ); conditions: 24 hours
Procedure: Through comparative analysis of an organ-on-a-chip mimicking normal kidney tissue and an organ-on-a-chip mimicking renal fibrosis, evaluation indices for screening for renal fibrosis therapeutic agents were deduced in the following manner. At this time, human-derived renal fibroblasts, vascular endothelial cells (GFP-HUVEC), and renal tubular epithelial cells were seeded in the kidney-on-a-chip (FIG. 12A) manufactured in Example 3 in the same manner as in A. of Example 3, and cultured to manufacture a kidney-on-a-chip. However, two types of renal fibroblasts of renal fibroblasts derived from normal kidney tissue (hereinafter referred to as normal kidney-on-a-chip) and renal fibroblasts derived from renal fibrosis kidney tissue (hereinafter referred to as renal fibrosis-on-a-chip) were used as the renal fibroblasts to manufacture two types of kidney-on-chips.
The two types of kidney-on-chips were divided into the control group (control in FIGS. 13A to 13D) in which each of the two types of kidney-on-chips was not treated with TGF-β and the TGF-β group (TGF β in FIGS. 13A to 13D) in which each of the two types of kidney-on-chips was treated with TGF-β unlike Example 3, and immunofluorescence staining was performed in the same manner as in B. of Example 3. At this time, the renal tubular epithelial cells in the renal tubule culture part of each kidney-on-a-chip were treated with CCK8 antibody and α-SMA antibody, respectively, their fluorescence expression was photographed using a confocal microscope (MICROSCOPE CONFOCAL LASER SCANNING ZEISS LSM 710), the mean fluorescence intensity of each image was measured using the analysis program of the confocal microscope, then the result values of CCK8 and α-SMA measured for each group were compared to the values for the control group (control) to comparatively analyze the difference in expression levels, and the results are as illustrated in FIGS. 13A to 13D.
It is more reasonable to compare the kidney-on-a-chip of Example 3 to the pathological tissue of a patient from which kidney cells were obtained rather than comparing the kidney-on-a-chip to a laboratory animal model of renal fibrosis, so the evaluation indices for screening for renal fibrosis therapeutic agents were deduced by manufacturing a kidney-on-a-chip and performing comparative analysis in the same manner as in Experimental Example 1. […] In this experiment, three types of kidney-on-chips were manufactured: the control group (control in FIGS. 15 to 20) not treated with TGF-β, the TGF-β group (TGF β in FIGS. 15 to 20) treated with TGF-β in Experimental Example 1, and a TGF-β inhibition group (TGF β inhibitor in FIGS. 15 to 20) that was treated with TGF-β at 5 ng/ml and a TGF-β inhibitor at 10 μM and reacted for 24 hours.
For the three types of kidney-on-chips of the control group, the TGF-β group, and the TGF-β inhibition group, vascular endothelial cells (GFP-HUVEC) present in the vascular endothelial cell region of the interstitium culture part were photographed using a confocal microscope (MICROSCOPE CONFOCAL LASER SCANNING ZEISS LSM 710). […] The result values measured for each of the control group, TGF-β group, and TGF-β inhibition group were compared to the values for the control group according to each index to comparatively analyze the length and diameter of thin blood vessels and the length and diameter of thick blood vessels, and the results are as illustrated in FIGS. 17 to 18.

[4] = test system: kidney injury molecule-1 (KIM-1); assay: Renal fibrosis-on-a-chip: KIM-1 ELISA of culture solution; conditions: three renal fibrosis-on-chips (patients GFP >90, 60 to 90, <60), TGF-β 5 ng/ml alone or with TGF-β inhibitor 10 μM, 24 hours, FIG. 19
Procedure: An experiment was performed in the same manner as in Experimental Example 2, but enzyme-linked immunosorbent assay (ELISA assay) was performed to examine whether kidney injury molecule-1 (KIM-1) could be used as an evaluation index.
Specifically, renal fibroblasts obtained from each of three patients having GFP >90, GFP 60 to 90, and GFP <60 and purchased vascular endothelial cells (GFP-HUVEC) and renal tubular epithelial cells (HK-2 cells) were co-cultured in the vascular endothelial cell medium in the same manner as in Experimental Example 1 to manufacture three types of kidney-on-chips. Next, the medium was collected for each of the control group, TGF-β group, and TGF-β inhibition group of each of the three types of kidney-on-chips, the medium of each group was diluted at an appropriate ratio, and then ELISA analysis was performed according to the instructions of the KIM-1 (human) ELISA kit (Enzo Life Sciences, Inc, #ADI-900-226-0001). Afterwards, the result values for each group were measured at 450 nm using ELISA READER (SPECTRAMAX PLUS384), each measured result value was compared to the value for the control group of each of the three types of kidney-on-chips to comparatively analyze the difference in expression level of KIM-1, and the results are as illustrated in FIG. 19.

[5] = test system: vascular endothelial growth factor (VEGF); assay: Renal fibrosis-on-a-chip: VEGF real-time PCR; conditions: two renal fibrosis-on-chips (patients GFP >90, 60 to 90), TGF-β 5 ng/ml alone or with TGF-β inhibitor 10 μM, 24 hours, FIG. 20
Procedure: An experiment was performed in the same manner as in Experimental Example 3-1, but real-time PCR was performed to examine whether the vascular endothelial growth factor (VEGF) can be used as an evaluation index.
Specifically, for each of the control group, TGF-β group, and TGF-β inhibition group of each of the two types of kidney-on-chips manufactured from a patient with GFP >90 and a patient with GFP 60 to 90 in Experimental Example 3-1, RNA was isolated from all of the renal tubular epithelial cells (HK-2 cells), fibroblasts, and vascular endothelial cells (GFP-HUVEC) co-cultured in each kidney-on-a-chip, cDNA was synthesized from this according to a method known in the art and mixed with VEGF primers and SYBER green, and the expression level of VEGF was measured using real-time PCR equipment (REAL TIME PCR SYSTEM, Applied Biosystems ViiA7). After measurement, the result values for each group measured using the equipment were compared to the values for the control group of each of the […] of kidney-on-chips to comparatively analyze the difference in expression level of VEGF, and the results are as illustrated in FIG. 20.

[6] = renal tubular epithelial cell region, vs control, FIG. 13A, 13B
[7] = renal fibrosis-on-a-chip (Experimental Example 1), renal tubular epithelial cell region, TGF-β 5 ng/ml, vs control, FIG. 13C, 13D
[8] = three renal fibrosis-on-chips (patients GFR >90, 60-90, <60), TGF-β 5 ng/ml alone or with TGF-β inhibitor 10 μM, FIG. 15, 16

transforming growth factor-β [TGF-β]
expression level of CCK8 [1, 6]: decreased | expression level of α-SMA [1, 6]: increased | number of thin blood vessels ([1]; vascular endothelial cell region of interstitium culture part): increased | expression level of CCK8 [2, 7]: decreased | expression level of α-SMA [2, 7]: increased | expression level of CCK8 [2, 8]: decreased | expression level of α-SMA [2, 8]: increased | number of thin blood vessels ([3]; renal fibrosis-on-a-chip (Experimental Example 1), vascular endothelial cell region, TGF-β 5 ng/ml): increased | total length of thick blood vessels (50 μm or more) ([3]; three renal fibrosis-on-chips, TGF-β 5 ng/ml alone or with TGF-β inhibitor 10 μM, FIG. 17A): decreased | diameter of thick blood vessels ([3]; three renal fibrosis-on-chips, TGF-β 5 ng/ml alone or with TGF-β inhibitor 10 μM, FIG. 17B): decreased | total length of thin blood vessels (less than 50 μm) ([3]; three renal fibrosis-on-chips, TGF-β 5 ng/ml alone or with TGF-β inhibitor 10 μM, FIG. 18A): increased | diameter of thin blood vessels ([3]; three renal fibrosis-on-chips, TGF-β 5 ng/ml alone or with TGF-β inhibitor 10 μM, FIG. 18B): decreased | expression level of KIM-1 in the culture solution [4]: increased | expression level of VEGF [5]: increased
